Test results from patent US8563714B2, “Bridged spiro [2.4] heptane derivatives as ALX receptor and/or FPRL2 agonists” (Actelion Pharmaceuticals Ltd., priority 2009, dated 2013).
pEC50: −log10 of the molar value.

What was measured:
[1] = biological target: T1, human ALX receptor (Homo sapiens, UniProt P25090); experiment: Intracellular calcium measurements (FLIPR), agonistic activity in HEK293-hALXR-Gα16 cells; format: cell-based; details: Fluo-4 calcium FLIPR, normalized to WKYMVm 10 nM
T1 construct: expressed in transfected cells; host or cells: HEK293 (HEK293-hALXR-Gα16)
T1 sequence (P25090 1-351): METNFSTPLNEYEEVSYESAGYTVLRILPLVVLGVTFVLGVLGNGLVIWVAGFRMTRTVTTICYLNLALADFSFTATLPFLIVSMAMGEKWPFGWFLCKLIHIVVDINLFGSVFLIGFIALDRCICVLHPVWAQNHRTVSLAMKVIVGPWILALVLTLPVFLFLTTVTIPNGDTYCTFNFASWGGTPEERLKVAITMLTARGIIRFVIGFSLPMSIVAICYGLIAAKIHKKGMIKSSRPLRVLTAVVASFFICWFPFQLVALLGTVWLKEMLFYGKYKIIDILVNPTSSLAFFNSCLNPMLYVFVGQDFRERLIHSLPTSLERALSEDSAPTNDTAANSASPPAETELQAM
Summary of the method: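 HEK293 cells expressing hALXR and Gα16 were loaded with 1 μM Fluo-4 AM and 20 mM HEPES for 60 min at 37°C, then exposed to serially diluted compound. FLIPR fluorescence was read at ex 488/em 540 nm. Baseline-subtracted peak responses were normalized to 10 nM WKYMVm.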

[2] = biological target: T2, human FPRL2 (Homo sapiens, UniProt P25089); experiment: Intracellular calcium measurements (FLIPR), agonistic activity in HEK293-hFPRL2-Gα16 cells; format: cell-based; details: Fluo-4 calcium FLIPR, normalized to GLY14-Humanin 100 nM
T2 construct: expressed in transfected cells; host or cells: HEK293 (HEK293-hFPRL2-Gα16)
T2 sequence (P25089 1-353): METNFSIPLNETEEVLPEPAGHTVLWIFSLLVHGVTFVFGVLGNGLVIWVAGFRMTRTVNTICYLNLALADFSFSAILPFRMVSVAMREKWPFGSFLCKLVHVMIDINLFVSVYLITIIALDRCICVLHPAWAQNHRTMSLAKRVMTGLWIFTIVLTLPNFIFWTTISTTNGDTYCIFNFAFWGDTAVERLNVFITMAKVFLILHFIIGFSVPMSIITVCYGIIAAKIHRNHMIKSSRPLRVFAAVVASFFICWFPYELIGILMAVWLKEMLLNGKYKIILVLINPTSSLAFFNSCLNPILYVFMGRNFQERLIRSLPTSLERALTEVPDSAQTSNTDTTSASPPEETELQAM
Summary of the method: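 Peak values after baseline subtraction are expressed relative to 100 nM Gly14-Humanin; compounds diluted in assay buffer from 10 mM DMSO stocks.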

Structure (SMILES)	pEC50 [1]	pEC50 [2]
O=C(NCCCCN1CCCC1)[C@H]1[C@H](C(=O)Nc2nc3ccc(F)cc3s2)[C@@H]2C=C[C@H]1C21CC1 (racemic) [Example 148, (5R*)—N^5-(6-Fluoro-benzothiazol-2-yl)-(6R*)—N^6-(4-pyrrolidin-1-yl-butyl)-(4S*,7R*)-[4,7-ethenylene-spiro[2.4]heptane]-5,6-dicarboxamide]	5.12	6.65
CCC(CC)CNC(=O)[C@H]1[C@H](C(=O)NCCCCN2CCCC2)[C@H]2C=C[C@@H]1C21CC1 (racemic) [Example 149, (5R*)—N^5-(2-Ethyl-butyl)-(6R*)—N^6-(4-pyrrolidin-1-yl-butyl)-(4S*,7R*)-[4,7-ethenylene-spiro[2.4]heptane]-5,6-dicarboxamide]	5.09	6.16
O=C(NCCCCN1CCCC1)[C@H]1[C@H](C(=O)Nc2nc(-c3ccc(Cl)cc3)cs2)[C@@H]2C=C[C@H]1C21CC1 (racemic) [Example 150, (5R*)—N^5-(4-(4-Chlorophenyl)-thiazol-2-yl)-(6R*)—N^6-(4-pyrrolidin-1-yl-butyl)-(4S*,7R*)-[4,7-ethenylene-spiro[2.4]heptane]-5,6-dicarboxamide]	5.07	6.96
O=C(NCCCCN1CCCC1)[C@H]1[C@H](C(=O)Nc2cccc3nonc23)[C@@H]2C=C[C@H]1C21CC1 (racemic) [Example 151, (5R*)—N^5-(Benzo[2,1,3]oxadiazol-4-yl)-(6R*)—N^6-(4-pyrrolidin-1-yl-butyl)-(4S*,7R*)-[4,7-ethenylene-spiro[2.4]heptane]-5,6-dicarboxamide]	5.04	6.15
CC(C)(C)c1csc(NC(=O)[C@H]2[C@H](C(=O)NCCCCN3CCCC3)[C@H]3C=C[C@@H]2C32CC2)n1 (racemic) [Example 152, (5R*)—N^5-(4-tert-Butyl-thiazol-2-yl)-(6R*)—N^6-(4-pyrrolidin-1-yl-butyl)-(4S*,7R*)-[4,7-ethenylene-spiro[2.4]heptane]-5,6-dicarboxamide]	5.02	6.82
O=C(NCCCCN1CCCC1)[C@H]1[C@H](C(=O)Nc2nc(-c3ccccc3)ns2)[C@@H]2C=C[C@H]1C21CC1 (racemic) [Example 153, (5R*)—N^5-(3-Phenyl-[1,2,4]thiadiazol-5-yl)-(6R*)—N^6-(4-pyrrolidin-1-yl-butyl)-(4S*,7R*)-[4,7-ethenylene-spiro[2.4]heptane]-5,6-dicarboxamide]	5.00	7.04
O=C(NCCCCN1CCCC1)[C@H]1[C@H](C(=O)Nc2nc3ccc(Cl)cc3s2)[C@@H]2C=C[C@H]1C21CC1 (racemic) [Example 154, (5R*)—N^5-(6-Chloro-benzothiazol-2-yl)-(6R*)—N^6-(4-pyrrolidin-1-yl-butyl)-(4S*,7R*)-[4,7-ethenylene-spiro[2.4]heptane]-5,6-dicarboxamide]	5.00	6.67
Cc1cc2ccccc2n1CCCNC(=O)[C@H]1[C@H](C(=O)NCCCCN2CCCC2)[C@H]2C=C[C@@H]1C21CC1 (racemic) [Example 155, (5R*)—N^5-(3-(2-Methyl-1H-indol-1-yl)-propyl)-(6R*)—N^6-(4-pyrrolidin-1-yl-butyl)-(4S*,7R*)-[4,7-ethenylene-spiro[2.4]heptane]-5,6-dicarboxamide]	< 4.60	7.04
Cn1c(CCNC(=O)[C@H]2[C@H](C(=O)NCCCCN3CCCC3)[C@H]3C=C[C@@H]2C32CC2)nc2ccccc21 (racemic) [Example 156, (5R*)—N^5-(2-(1-Methyl-1H-benzoimidazol-2-yl)-ethyl)-(6R*)—N^6-(4-pyrrolidin-1-yl-butyl)-(4S*,7R*)-[4,7-ethenylene-spiro[2.4]heptane]-5,6-dicarboxamide]	< 4.60	6.21
O=C(NCCCCN1CCCC1)[C@H]1[C@H](C(=O)NCCn2ccc3ccccc32)[C@@H]2C=C[C@H]1C21CC1 (racemic) [Example 157, (5R*)—N^5-(2-(1H-Indol-1-yl)-ethyl)-(6R*)—N^6-(4-pyrrolidin-1-yl-butyl)-(4S*,7R*)-[4,7-ethenylene-spiro[2.4]heptane]-5,6-dicarboxamide]	< 4.60	6.87

Continued by rising pEC50 [1], values first:

pEC50 [1]	pEC50 [2]	Structure (SMILES)
5.13	6.08	O=C(NCCCCN1CCCC1)[C@H]1[C@H](C(=O)Nc2ccc3[nH]ccc3c2)[C@@H]2C=C[C@H]1C21CC1 (racemic) [Example 147, (5R*)—N^5-(1H-Indol-5-yl)-(6R*)—N^6-(4-pyrrolidin-1-yl-butyl)-(4S*,7R*)-[4,7-ethenylene-spiro[2.4]heptane]-5,6-dicarboxamide]
5.35	6.47	Cc1nsc2ccc(NC(=O)[C@H]3[C@H](C(=O)NCCCCN4CCCC4)[C@H]4C=C[C@@H]3C43CC3)cc12 (racemic) [Example 146, (5R*)—N^5-(3-Methyl-benzo[d]isothiazol-5-yl)-(6R*)—N^6-(4-pyrrolidin-1-yl-butyl)-(4S*,7R*)-[4,7-ethenylene-spiro[2.4]heptane]-5,6-dicarboxamide]
5.44	6.19	CC(C)(C)c1cc(NC(=O)[C@H]2[C@H](C(=O)NCCCCN3CCCC3)[C@H]3C=C[C@@H]2C32CC2)no1 (racemic) [Example 145, (5R*)—N^5-(5-tert-Butyl-isoxazol-3-yl)-(6R*)—N^6-(4-pyrrolidin-1-yl-butyl)-(4S*,7R*)-[4,7-ethenylene-spiro[2.4]heptane]-5,6-dicarboxamide]
5.64	6.49	O=C(NCCCCN1CCCC1)[C@H]1[C@H](C(=O)Nc2nc3ccccc3s2)[C@@H]2C=C[C@H]1C21CC1 (racemic) [Example 144, (5R*)—N^5-(Benzothiazol-2-yl)-(6R*)—N^6-(4-pyrrolidin-1-yl-butyl)-(4S*,7R*)-[4,7-ethenylene-spiro[2.4]heptane]-5,6-dicarboxamide]
5.69	7.03	O=C(NCCCCN1CCCC1)[C@H]1[C@H](C(=O)NCc2cccc(Br)c2)[C@@H]2C=C[C@H]1C21CC1 (racemic) [Example 143, (5R*)—N^5-(3-Bromophenyl-methyl)-(6R*)—N^6-(4-pyrrolidin-1-yl-butyl)-(4S*,7R*)-[4,7-ethenylene-spiro[2.4]heptane]-5,6-dicarboxamide]
5.88	6.74	O=C(NCCCCN1CCCC1)[C@H]1[C@H](C(=O)Nc2cnc(Cl)nc2)[C@@H]2C=C[C@H]1C21CC1 (racemic) [Example 142, (5R*)—N^5-(2-Chloro-pyrimidin-5-yl)-(6R*)—N^6-(4-pyrrolidin-1-yl-butyl)-(4S*,7R*)-[4,7-ethenylene-spiro[2.4]heptane]-5,6-dicarboxamide]
6.13	5.88	CC(=O)CCCNC(=O)[C@H]1[C@H](C(=O)NCCCCN2CCCC2)[C@H]2C=C[C@@H]1C21CC1 (racemic) [Example 140, (5R*)—N^5-(4-oxo-pentyl)-(6R*)—N^6-(4-pyrrolidin-1-yl-butyl)-(4S*,7R*)-[4,7-ethenylene-spiro[2.4]heptane]-5,6-dicarboxamide]
